Data published in patent US9884065B2, “Inhibiting activity of senescent cells using a glucocorticoid” (Buck Institute for Research on Aging, priority 2011, dated 2018).

Columns and labels:
[1] = test system: T47D human breast cancer cells; test: Invasion assay: conditioned media from HCA2 fibroblasts stimulating T47D invasion of basement membrane; assay type: cell-based; conditions: HCA2 fibroblasts treated with corticosterone or cortisol for 10 d
Experimental: T47D human breast cancer cells (120,000 cells/well) were plated atop a layer of Matrigel in the upper chambers of Transwells (BD Biosciences). The lower chambers contained conditioned media from pre-senescent or senescent HCA2 fibroblasts treated with corticosterone or cortisol for 10 d. After 18 h, cells that migrated to the underside of the upper chamber filter were stained and counted, as described (Coppe et al., 2008, PLoS Biol. 6:2853-2868; Coppe et al., 2010, PLoS ONE 5:e9188).

Sen (XRA) HCA2 cells = test: Senescent phenotypes of Sen (XRA) HCA2 cells (SA-Bgal, BrdU labeling, 53BP1 foci); assay type: cell-based, human; conditions: 500 nM corticosterone or 100 nM cortisol, 7 days
Experimental: Conditioned media from presenescent (Pre) and the control and glucocorticoid-treated Sen (XRA) cells were analyzed by ELISA for IL-6. […] The percentage of presenescent (Pre) and Sen (XRA) cells that express SA-Bgal were scored (upper panel). A representative field corresponding to each condition is also shown (bottom panels). […] The percentage of cells with >2 53BP1 nuclear foci was determined using CELL PROFILER software. At least 200 cells were analyzed per condition.
HCA2 human neonatal foreskin, IMR-90 human fetal lung fibroblasts and T47D human breast cancer cells were obtained and cultured in 3% O2 and 10% CO2 as previously described (Coppe et al., 2008, PLoS Biol. 6:2853-2868; Rodier et al., 2009, Nature Cell Biol. 11:973-979; Coppe et al., 2010, PLoS ONE 5:e9188). Cells were induced to senesce by X-irradiation (10 Gy) or lentiviral expression of oncogenic RAS or MAP kinase kinase 6 (MKK6), as described (Coppe et al., 2008, PLoS Biol. 6:2853-2868; Rodier et al., 2009, Nature Cell Biol. 11:973-979; Freund et al., 2011, EMBO J. 30:1536-1548). Pre-senescent and senescent cells had 24-h BrdU labeling indices of >75% and <10% respectively (Rodier et al., 2009, Nature Cell Biol. 11:973-979); <10% and >70% respectively stained positive for senescence-associated beta-galactosidase activity (Dimri et al., 1995, Proc. Natl. Acad. Sci. USA 92:9363-9367) (Biovision senescence detection kit). HEK293FT packaging cells (Invitrogen) were used to generate lentiviruses. Corticosterone, cortisol and RU-486 were obtained from Sigma-Aldrich.

IL-6 = test: Initial drug screen (Prestwick Chemical Library), IL-6 ELISA of medium; assay type: cell-based, human; conditions: 2.5 μM, 48 hours, HCA2 fibroblasts, 0.2% serum
Experimental: The initial drug screen was performed in a 96-well format using automated liquid handling with a Biomek FX (Beckman Coulter, CA). Senescent cells were plated 24 hours after X-irradiation at 7,500 cells per well in 96-well plates. Six days after plating the senescent cells, the pre-senescent cells were plated at 7,500 cells per well in 96-well plates. Twenty-four hours after pre-senescent plating, both pre-senescent and senescent cells were washed and incubated in low (0.2%) serum for 48 hours to arrest cell proliferation of the pre-senescent cells. […] Forty-eight hours after compound addition, the medium in each well was removed and frozen for assay by ELISA to quantitate the levels of IL-6. The cells, which remained in the wells after the medium was removed, were lysed and ATP levels were measured (ATPlite 1-step assay, Perkin Elmer, MA) to exclude compounds that lowered IL-6 through toxicity (cell death). Experimental wells in each plate were normalized to plate mean or same-plate DMSO controls for the ELISA and ATP assays, respectively.
To identify small molecules that may be potential SASP modulators, a screening strategy that entailed administering compounds to parallel 96-well plates containing human fibroblasts (strain HCA2) that were either quiescent or senescent was developed. […] After 48 hours, the medium from each well was removed, and the cells were lysed. […] Cell lysates were assayed for ATP as a surrogate for cell number.

[2] = molecular target: T1, glucocorticoid receptor (GR) (Homo sapiens, UniProt P04150); test: Immunostaining for GR localization in HCA2 cells; assay type: cell-based; conditions: senescent HCA2 cells; 500 nM corticosterone or 100 nM cortisol
T1 construct: endogenous in cells; host or cells: HCA2 human fibroblasts
T1 sequence (P04150 1-777): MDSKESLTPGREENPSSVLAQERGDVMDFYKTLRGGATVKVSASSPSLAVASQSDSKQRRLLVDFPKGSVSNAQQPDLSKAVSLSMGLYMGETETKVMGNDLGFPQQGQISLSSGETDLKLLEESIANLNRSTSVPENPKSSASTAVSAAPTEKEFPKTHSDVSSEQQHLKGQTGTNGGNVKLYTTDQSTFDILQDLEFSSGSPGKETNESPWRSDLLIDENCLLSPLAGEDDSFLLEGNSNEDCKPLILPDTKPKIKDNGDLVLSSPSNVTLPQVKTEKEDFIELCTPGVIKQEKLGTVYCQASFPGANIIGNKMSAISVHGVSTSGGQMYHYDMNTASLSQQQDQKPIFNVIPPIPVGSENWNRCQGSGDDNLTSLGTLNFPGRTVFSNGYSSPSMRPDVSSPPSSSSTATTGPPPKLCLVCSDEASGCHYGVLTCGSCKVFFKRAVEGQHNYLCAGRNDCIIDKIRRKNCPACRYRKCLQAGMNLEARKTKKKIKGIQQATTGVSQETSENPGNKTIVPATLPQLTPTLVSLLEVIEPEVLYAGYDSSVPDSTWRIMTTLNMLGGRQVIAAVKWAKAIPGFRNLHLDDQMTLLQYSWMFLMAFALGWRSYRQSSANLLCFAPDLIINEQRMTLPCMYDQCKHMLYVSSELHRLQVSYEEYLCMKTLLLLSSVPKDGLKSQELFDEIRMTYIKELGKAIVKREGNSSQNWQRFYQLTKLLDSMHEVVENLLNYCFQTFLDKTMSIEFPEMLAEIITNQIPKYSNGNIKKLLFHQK
Experimental: Cells were cultured in 8-well chamber slides, fixed in 4% formaldehyde (Sigma) for 10 min at 4° C. and permeabilized in PBS-0.5% Triton for 10 min in 4° C.

Compound	ability of senescent conditioned media to stimulate T47D invasiveness [1]	fraction of cells that expressed SA-Bgal (Sen (XRA) HCA2 cells)	number of persistent DNA damage foci (53BP1) (Sen (XRA) HCA2 cells)	senescence growth arrest (24 h BrdU labeling index) (Sen (XRA) HCA2 cells)	IL-6 secretion (ELISA) (IL-6)	GR localization [2]
C[C@]12C[C@H](O)[C@H]3[C@@H](CCC4=CC(=O)CC[C@@]43C)[C@@H]1CC[C@@H]2C(=O)CO [corticosterone]	near-presenescent levels	no effect on the fraction of cells that expressed SA-Bgal	no effect on the number of persistent DNA damage foci	maintained their low 24 h BrdU labeling index	suppressed IL-6 secretion	translocated into the nucleus
C[C@]12CCC(=O)C=C1CC[C@@H]1[C@@H]2[C@@H](O)C[C@@]2(C)[C@H]1CC[C@]2(O)C(=O)CO [cortisol]	near-presenescent levels	no effect on the fraction of cells that expressed SA-Bgal	no effect on the number of persistent DNA damage foci	maintained their low 24 h BrdU labeling index	suppressed IL-6 secretion	translocated into the nucleus
